The results in this text go back to ChEMBL document CHEMBL1151214, “Pentacyclic triterpenoid esters from the fruits of Bruguiera cylindrica” (J Nat Prod, 2004).

A word on the IC50: it is the concentration needed to halve the response being measured. Higher therefore signals weaker potency.

Structures are written as SMILES. Converted amounts (≈) assume the structure as drawn. The source made the active and inactive calls. No cut-off for these calls is given here.

Common to all, as to type: functional, cell-based
One assay relates to KB. The assay is described as follows: Cytotoxicity against human KB cells by colorimetric method.
For another assay, the system named is BC. Kind of assay: Cytotoxicity against human BC cells by colorimetric method.
For a further assay, the system named is NCI-H187. Kind of assay: Cytotoxicity against human NCI-H187 cells by colorimetric method.

For the molecule `CC1(C)CC[C@]2(C)CC=C3[C@]4(C)CC[C@H]5C(C)(C)[C@H](OC(=O)/C=C\c6ccc(O)cc6)CC[C@]5(C)[C@H]4CC[C@@]3(C)[C@@H]2C1`, the outcome in the assay with KB and in the assay with BC was inactive. Half-maximal inhibition with NCI-H187 (IC50) was put at 20 µg/mL (≈ 34.9 µM).
For the molecule `COc1cc(/C=C/C(=O)O[C@@H]2CC[C@]3(C)[C@H]4CC[C@]5(C)C(=CC[C@@]6(C)CCC(C)(C)C[C@H]65)[C@]4(C)CC[C@H]3C2(C)C)ccc1O`, the result in the assay with KB, in the assay on BC and with NCI-H187 was inactive.
Turning to `COc1cc(/C=C\C(=O)O[C@@H]2CC[C@]3(C)[C@H]4CC[C@]5(C)C(=CC[C@@]6(C)CCC(C)(C)C[C@H]65)[C@]4(C)CC[C@H]3C2(C)C)ccc1O`, the result with KB and in the assay on BC was inactive. The molecule also had an IC50 with NCI-H187 of 12.2 µg/mL (≈ 20.2 µM).
Take `CC1(C)CC[C@]2(C)CC=C3[C@]4(C)CC[C@H]5C(C)(C)[C@H](OC(=O)/C=C/c6ccc(O)cc6)CC[C@]5(C)[C@H]4CC[C@@]3(C)[C@@H]2C1`: the result in the assay with KB, with BC and in the assay on NCI-H187 was inactive.
Turning to `COc1cc(/C=C/C(=O)O[C@H]2CC[C@]3(C)[C@H]4CC[C@]5(C)C(=CC[C@@]6(C)CCC(C)(C)C[C@H]65)[C@]4(C)CC[C@H]3C2(C)C)ccc1O`, the outcome in the assay with KB, in the assay on BC and in the assay on NCI-H187 was inactive.
